Structure (SMILES) | melting point
CS(=O)c1nc2cc(Oc3ccc(Cl)cc3Cl)c(Cl)cc2[nH]1 (stereo not drawn) | 206 to 208 °C
N#CC(C#N)(OC(=O)c1ccc(Cl)cc1)c1ccc(Cl)cc1 | 158 to 159 °C
O=c1ncc(Br)cn1Cc1cccs1 | 188 to 190 °C
CC(C(=O)O)c1cc(Cl)c(N)cc1Cl (stereo not drawn) | 140 to 141 °C
CCOC(=O)c1ncn2c1[C@@H]1CCCN1C(=O)c1c(Br)cccc1-2 | 191 to 192 °C
CCC(=O)c1ccc(OCCOC)cc1 | 31 to 35 °C
O=C(CCl)COc1c(Cl)cc(Cl)cc1Cl | 55 °C
COc1ccc2c(c1)COc1ccc(OCc3ccc4ccc(Cl)cc4n3)cc1C2SCCC(=O)O (stereo not drawn) | 177 to 179 °C
O=C(O)C1=Cc2cc(Br)ccc2OC1C(F)(F)F (stereo not drawn) | 190 to 191 °C
O=[N+]([O-])CS(=O)(=O)c1cccc2c1sc1ccccc12 | 145 to 146 °C
CC(=O)OC(c1ccccc1F)c1scnc1C (stereo not drawn) | 53 to 56 °C
COC(=O)[C@@H](NC(=O)[C@H](CC(C)C)NC(=O)[C@@H](NC(=O)OCc1ccccc1)C(C)C)[C@@H](C)O | 217 to 218 °C
CC(C)(C)OC(=O)N(C[C@H](O)COc1ccc(OCc2ccccc2)cc1)C1CN(C(c2ccccc2)c2ccccc2)C1 | 95 to 96 °C
COc1cc(NNc2nccc(Nc3ccc(N(C)C)cc3)n2)cc(OC)c1OC | 212 °C
O=C(O)CC12CCC(=O)N1C(=O)CC2 | 177 to 180 °C
COc1cc(C)c(S(=O)(=O)c2cccc(C)c2)cc1OC | 135 to 140 °C
Cc1c(Cc2ccc(N3C(=O)C=CC3=O)c(C)c2C)ccc(N2C(=O)C=CC2=O)c1C | 210 to 220 °C
Cc1cc(NC(=O)C(CSC(=O)CC(C)C)Cc2ccccc2)cc(C(=O)O)c1 (stereo not drawn) | 153 to 157 °C
CON=Cc1cc(N=c2sc(=S)n3n2CCCC3)c(F)cc1Cl | 128 to 133 °C
O=c1c2ccccc2nc(-c2sc(Nc3ccccc3)nc2-c2ccccc2)n1-c1ccccc1 | 181 to 182 °C
CS(=O)(=O)c1cc(C(=O)N=C(N)N)cc(-n2cccc2)c1 | 235 to 236 °C
CC1(C)C=C(CCl)CS1(=O)=O | 59 to 60 °C
Nc1cccc(NCCCN2CCOCC2)c1 | 61 to 65 °C
O=C(NCCNS(=O)(=O)c1ccc(Oc2ccccc2)cc1)P(=O)(O)O | 166 to 169 °C
BrCc1c(Br)c(Br)c(CBr)c(Br)c1Br | 268 to 271 °C

Structure (SMILES) | melting point
O=C(O)/C=C/n1cnc2ccc(OCCO)cc2c1=O | 247 to 248 °C
CC(N)=C(C(=O)OC(C)(C)C)C(=S)NC(=O)c1ccccc1 | 107 to 110 °C
CC(=O)Nc1nc(Cl)c(NC=O)c(Cl)n1 | 189 to 193 °C
COc1ccc(OC)c(Cc2cccc(N)c2)c1 | 81 to 84 °C
Cc1nc2cc(Cl)cc(Cl)c2o1 | 110 to 113 °C
COc1cc(-c2nc3ccc(O)cc3n2Cc2ccccc2Br)cc(OC)c1OC | 208 °C
CN(C)C=C1Cc2cc(Cl)ccc2C1=O | 148 to 150 °C
O=[N+]([O-])c1ccc(S(=O)CCCCl)cc1 (stereo not drawn) | 72.5 to 74.5 °C
CCCCCCCCCCCCc1nnn(C(C)(C)C(=O)O)n1 | 68 to 71 °C
O=P(O)(O)CN(CP(=O)(O)O)c1ccccc1 | 130 to 131 °C
CCCN(CCC)Cc1cnc(-c2ncn3c2CN(C)C(=O)c2c-3ccc(F)c2Cl)o1 | 110 to 112 °C
CC(C)(C)c1cc(Oc2ccc(Br)cc2)cc(C(C)(C)C)c1 | 98 to 100 °C
O=C1Nc2cc(Br)ccc2Oc2cscc21 | 245 to 249 °C
Cc1cc(C)c(-c2csc3c(Cl)cc(C)nc23)c(C)c1 | 129 to 131 °C
COC(=O)c1nc(-c2cc(F)c([Si](C)(C)C)cc2F)c(F)c(N)c1OC | 137 to 139 °C
COc1ccc(C2Sc3c(ccc4ccccc34)N(CCCN(C)C)C(=O)C2OC(C)=O)cc1 (stereo not drawn) | 98 to 99 °C
COc1ccc(OCCCO)cc1 | 56 to 60 °C
COc1ccc(N(Cc2cccnc2)S(C)(=O)=O)c(OC)c1 | 117 to 119 °C
Cc1oc(-c2ccco2)nc1COc1ccc(COc2nn(Cc3ccc(OCc4nc(-c5ccco5)oc4C)cc3)cc2C=O)cc1 | 109 to 110 °C
NS(=O)(=O)c1cc(C(=O)O)cc([N+](=O)[O-])c1Nc1ccccc1 | 261 to 262 °C
CCCCc1nc(C(C)(O)CC)c(C#N)n1C(c1ccccc1)(c1ccccc1)c1ccccc1 (stereo not drawn) | 90 to 93 °C
O=C(CCCCCBr)Nc1ccc(O)cc1 | 124 to 125 °C
O=C(O)CCCCCCCc1nc(-c2ccccc2)c(-c2ccccc2)o1 | 82 to 83 °C
O=C(O)CCCCCCC=C(c1ccccc1)c1ccccc1 | 77.5 to 78.5 °C
COc1ccsc1CN=C(NC#N)Oc1ccccc1 | 170 to 171 °C

Continued, values first:

melting point | Structure (SMILES)
139 to 140 °C | COc1ccc(-c2nncn2-c2ccccc2)cc1
178 to 185 °C | CN1CCN(c2ccc(-c3cnc4[nH]cc(C(=O)N[C@@H](C(=O)N5CC(C#N)C5)C5CC5)c4n3)cc2)CC1
164 °C | CCCN(CCCCc1c[nH]c2ccc(F)cc12)C1COc2c(ccc3ncccc23)C1 (stereo not drawn)
120 °C | N#CN=C(Nc1cccc(-c2cccc(S(=O)(=O)NC(CC(=O)O)c3ccccc3)c2)c1)NC1CC1 (stereo not drawn)
159 to 161 °C | CNC(=O)COC(=O)N1CCN(CCOc2ccc(Cl)cc2)CC1
> 230 °C | O=c1[nH]c2c(n(O)c1=O)C1=C(CCC(n3ccc(CN4CCN(c5ccc([N+](=O)[O-])cc5)CC4)c3)=C1)CC2
193 to 194 °C | COc1ccc(C[C@@H](NC(=O)C2CCCCC2)[C@@H](O)c2ccc(F)cc2)cc1 (racemic)
98 to 100 °C | N#CC1Cc2ccc(Nc3ccncc3N)cc2C1 (stereo not drawn)
187 to 188 °C | COc1ccc(C(O)c2nn(C)c3c2CCc2c(C(N)=O)sc(Oc4ccc5c(c4)OCO5)c2-3)cc1 (stereo not drawn)
107 to 108 °C | O=Cc1c(Cl)cc(Cl)cc1OCc1ccc(F)cc1
77 to 79 °C | ClC(Cl)(Cl)c1nc(-c2ccccc2-c2ccc(CBr)cc2)no1
247 to 250 °C | CCS(=O)C1CCC2C3CCC4=CC(=O)C=CC4(C)C3(F)C(O)CC21C (stereo not drawn)
207 to 211 °C | CNC(=O)CCC1CCN(Cc2cnc3cc(NC(=O)c4ccc(-c5ccc(F)cc5)cc4)c(C)cc3c2)CC1
114 to 116 °C | CCC(Oc1c(Br)cccc1Br)C(=O)OC1CC(O)C=C2C=CC(C)C(CCC3CC(O)CC(=O)O3)C21 (mixture of isomers)
110 to 122 °C | O=C1NCCN1Cc1ccc(OCc2ccccc2)cc1
222 °C | Nc1ccccc1NC(=O)c1ccc(C(=O)Nc2cccc(Nc3nc(-c4cccnc4)cs3)c2)s1
269 to 270 °C | COc1ccc(-c2cc(=O)c3cccnc3o2)cc1
120 to 122 °C | O=C(c1cc(-c2ccc(F)cc2)c(-c2ccc(F)cc2)s1)C(F)(F)F
169 to 171 °C | COC(=O)c1ccc(NC(=O)CNc2ccccc2F)cc1
145 to 146 °C | O=C(NC1CCN(CCCOc2ccccc2-c2ncc(C(=O)O)c(O)n2)CC1)c1ccccc1
229 to 233 °C | O=C(NC1(C(=O)Nc2nncs2)CCCC1)OCc1ccccc1
118 to 119 °C | Cc1c(Br)c2c(c(C)c1NC(=O)CC(C)(C)C)C(c1ccc(C(C)C)cc1)CO2 (stereo not drawn)
286 °C | COc1ccc(-c2[nH]nc3c2C(=O)c2c(NC(=O)Cc4ccc(Cl)cc4Cl)cccc2-3)cc1
178 °C | Cc1csc(C(=O)N2CCCC2)c1-n1cccc1

melting point | Structure (SMILES)
148 to 151 °C | CCCc1nc(C(C)(C)O)c(C(=O)OCC)n1Cc1ccc(-c2ccccc2C(N)=O)cc1
> 250 °C | CN1C(=O)C(c2cccc(Br)c2)(C2CCN(C(=O)c3ccccc3)CC2)N=C1N (stereo not drawn)
88.5 to 89.5 °C | CCCCCCOc1ccc(C(=O)CSc2ccnc3ccccc23)c(OC)c1
80 to 82 °C | CC(C)(C)OC(=O)[C@H]1CCCN1S(=O)(=O)c1ccc2c(Cl)cnc(Cl)c2c1
332 to 333 °C | O=C1CCC(c2ccc(NC3=NCCO3)cc2)=NN1
184 to 185 °C | O=C(CC1=C(n2nc(-c3c(-c4ccccc4)nn4ccccc34)ccc2=O)CCCC1)N1CCCCC1
143 to 145 °C | CN1CCC(NC(=O)c2cc(Cl)ccc2F)CC1
145 to 147 °C | COC1(c2cccc(Oc3nc(-c4ccccc4)c(-c4ccc(S(N)(=O)=O)cc4)o3)c2)CCOCC1
219 to 220 °C | N#Cc1cccc(CCC(=O)c2c(O)c3cccnc3n(-c3ccccc3)c2=O)c1
68 to 69 °C | Clc1ccc(-c2nsc3cc(OCCCCBr)ccc23)cc1
165 to 167 °C | Cc1ccc(S(=O)(=O)N2CCc3c(sc(N)c3C(=O)c3ccccc3)C2)cc1
170 to 172 °C | O=C(O)c1ccccc1SCc1nccc2ccccc12
115 to 117 °C | COC(=O)c1ccc(NC(=O)c2ccccc2-c2ccccc2)c(OC)c1
139 to 140 °C | COC(=O)c1cc2cc(NS(=O)(=O)c3cccc(Cl)c3C)ccc2o1
154 to 155 °C | Fc1ccc(-c2ncn(C3CCNCC3)c2-c2ccnc(Oc3ccccc3F)n2)cc1
273 to 275 °C | CCC(CC)NC(=O)c1cc(-c2cnc3[nH]cc(C(=O)C4(C)CCCCC4)c3n2)cs1
150 to 157 °C | O=C(c1ccc(-c2ccn(C(=O)c3ccc(F)cc3Cl)n2)cc1)N1Cc2cccn2Cc2ccccc21
168 to 169 °C | O=C(NCc1ccc(Cl)cc1)c1ccc2sccc2c1O
210 to 212 °C | CC(C)(C)CC(=O)NC[C@H]1CN(c2ccc(N3CCC(=CC#N)CC3)c(F)c2)C(=O)O1
118 °C | OC1(c2ccc(Cl)c(Cl)c2)CCN(CCCOc2ccc(Cl)c(Cl)c2)CC1
274 °C | Cn1c(-c2ccc(Cl)c(S(N)(=O)=O)c2)csc1=Nc1ccc(O)cc1
144 to 147 °C | COC(=O)c1ccc2cc(OC(=S)N(C)C)ccc2c1
236 °C | O=C(O)CN1CCN2C(=O)N(c3cc(Cl)cc(Cl)c3)C(=O)C2(Cc2ccc(Br)cc2)C1 (stereo not drawn)
260 to 263 °C | COc1ccc2[nH]c3c(c2c1)C[C@@]1(C)C(=O)N(CCN2CCOCC2)C(=O)N1[C@@H]3c1cccc(O)c1 (racemic)
